# Source: US6624188B1, “Method of treatment with compounds having retinoid-like activity and reduced skin toxicity and lacking teratogenic effects” (Allergan, Inc., priority 1992, dated 2003)
# Test system: limb bud mesenchymal cells
# Test: inhibition of chondrogenesis in high-density spot cultures of limb bud mesenchymal cells
# Format: cell-based
# Settings: Mus musculus; limb bud mesenchymal cell spot cultures, terminated 96 hours after plating; read-out: IC50 (concentration which inhibited chondrogenesis by 50%)
# Text: In an in vitro bioassay which measures inhibition of chondrogenesis (bone formation) in […] as a classic measure of teratogenecity the results shown in Table 2 were obtained. The assay is described as follows:
# High-density “spot” cultures of limb bud mesenchymal cells were used to compare the ability of various concentrations of test drugs to suppress chondrogenic differentiation as a bioassay. Forelimb buds of mouse embryos on day 12 of gestation (54±2 somites) were dissociated in a trypsin-EDTA solution, and the resultant single-cell suspension was plated as 20-μl spots (200,000 cells/spot) on plastic culture dishes. Retinoid concentrations ranging from 0.3 ng/ml to 3 μg/ml (1 nM-10 μM) were added to the culture medium (Eagle's MEM+10% fetal bovine serum, GIBCO) 24 hours after initial plating. […]
# The cultures were terminated 96 hours after plating, at which time the medium was removed and the cells were fixed for 1 hour in 10% formalin containing 0.5% cetylpyridinium chloride. The cultures were rinsed in acetic acid and stained for 1 hour in 0.5% Alcian blue solution at pH 1.0, differentiated in 3% acetic acid, and then dehydrated in ethanol and scored for chondrogenesis under the microscope. […] The number of cartilage nodules stained in the whole spot, mean number of nodules, and standard deviations were calculated for four replicate cultures per treatment. […]
structure (smiles),measurement,value
"C/C(=C\c1ccc(C(=O)O)cc1)c1ccc2c(c1)C(C)(C)CCC2(C)C [AGN 191183, reference compound]",IC50,3 ng/mL
